Source: the supplement of paper PMC10307832

Assays:
Assay in all cases: relative viability (nuclei count vs DMSO), 5 days (fraction); higher = more cells survive
NCI-H596 = test system: NCI-H596
Outline: (§1)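 Cells from lung cancer lines were seeded into 1536-well plates and, one day later, dosed by pin tool. Treatments were either a single drug or a fixed dose of an anchor drug with five library-drug doses (not always all listed) in √10 steps. After 5 days, nuclei were stained in a one-step fixation (final 0.05% Triton X-100, 1% formaldehyde, 1 ug/ml Hoechst) and counted on 4× images, and relative viability is the treated-to-vehicle nuclei ratio, as the median of duplicate plates.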

NCI-H1703 = test system: NCI-H1703
Outline: as §1

NCI-H23 = test system: NCI-H23
Outline: as §1

A549 = test system: A549
Outline: as §1

IA-LM = test system: IA-LM
Outline: as §1

NCI-H1993 = test system: NCI-H1993
Outline: as §1

NCI-H1299 = test system: NCI-H1299
Outline: as §1

EBC-1 = test system: EBC-1
Outline: as §1

Calu-6 = test system: Calu-6
Outline: as §1

Compound `O=C(O)c1ccc(-c2c[nH]c3ncc(-c4ccccc4)cc23)cc1C1CCCC1` + C[C@]1(O)C[C@@H](c2nc(-c3ccc4ccc(-c5ccccc5)nc4c3)c3c(N)nccn32)C1 [Linsitinib] (partner 1 µM) has a relative viability (NCI-H596; first compound 0.04 µM) of 0.974, a relative viability (NCI-H596; first compound 0.1265 µM) of 1.05 and a relative viability (NCI-H596; first compound 0.4 µM) of 1.19. The relative viability (NCI-H596; first compound 1.265 µM) was 1.03, the relative viability (NCI-H1703; first compound 0.04 µM) was 0.647 and the relative viability (NCI-H1703; first compound 0.1265 µM) was 1.06. The relative viability (NCI-H1703; first compound 0.4 µM) was 1.06, the relative viability (NCI-H1703; first compound 1.265 µM) was 0.898 and the relative viability (NCI-H23; first compound 0.04 µM) was 0.545. It also gave a relative viability (NCI-H23; first compound 0.1265 µM) of 0.617, a relative viability (NCI-H23; first compound 0.4 µM) of 0.559 and a relative viability (NCI-H23; first compound 1.265 µM) of 0.451. For the same compound, the relative viability (A549; first compound 0.04 µM) was 0.622, the relative viability (A549; first compound 0.1265 µM) was 0.719 and the relative viability (A549; first compound 0.4 µM) was 0.717. The relative viability (A549; first compound 1.265 µM) was 0.505, the relative viability (IA-LM; first compound 0.04 µM) was 0.558 and the relative viability (IA-LM; first compound 0.1265 µM) was 0.685. The relative viability (IA-LM; first compound 0.4 µM) was 0.712, the relative viability (IA-LM; first compound 1.265 µM) was 0.513 and the relative viability (NCI-H1993; first compound 0.04 µM) was 0.745. The relative viability (NCI-H1993; first compound 0.4 µM) was 0.681, the relative viability (NCI-H1993; first compound 1.265 µM) was 0.753 and the relative viability (NCI-H1299; first compound 0.04 µM) was 0.933. The relative viability (NCI-H1299; first compound 0.1265 µM) was 1.02, the relative viability (NCI-H1299; first compound 0.4 µM) was 1.04 and the relative viability (NCI-H1299; first compound 1.265 µM) was 0.918. The relative viability (EBC-1; first compound 0.04 µM) was 0.862, the relative viability (EBC-1; first compound 0.1265 µM) was 0.903 and the relative viability (EBC-1; first compound 0.4 µM) was 0.956. It also gave a relative viability (EBC-1; first compound 1.265 µM) of 0.697, a relative viability (Calu-6; first compound 0.04 µM) of 0.86 and a relative viability (Calu-6; first compound 0.1265 µM) of 1.17. The relative viability (Calu-6; first compound 0.4 µM) was 0.892 and the relative viability (Calu-6; first compound 1.265 µM) was 0.781.
In the case of `O=C(O)c1ccc(-c2c[nH]c3ncc(-c4ccccc4)cc23)cc1C1CCCC1` + CS(=O)(=O)N1CCN(Cc2cc3nc(-c4cccc5[nH]ncc45)nc(N4CCOCC4)c3s2)CC1 [Pictilisib] (partner 1 µM), the relative viability (NCI-H596; first compound 0.04 µM) is reported as 0.353, the relative viability (NCI-H596; first compound 0.1265 µM) is reported as 0.399 and the relative viability (NCI-H596; first compound 0.4 µM) is reported as 0.353. It also gave a relative viability (NCI-H596; first compound 1.265 µM) of 0.41, a relative viability (NCI-H1703; first compound 0.04 µM) of 0.262 and a relative viability (NCI-H1703; first compound 0.1265 µM) of 0.298. It also gave a relative viability (NCI-H1703; first compound 0.4 µM) of 0.272, a relative viability (NCI-H1703; first compound 1.265 µM) of 0.224 and a relative viability (NCI-H23; first compound 0.04 µM) of 0.532. It also gave a relative viability (NCI-H23; first compound 0.1265 µM) of 0.519, a relative viability (NCI-H23; first compound 0.4 µM) of 0.43 and a relative viability (NCI-H23; first compound 1.265 µM) of 0.428. It also gave a relative viability (A549; first compound 0.04 µM) of 0.508, a relative viability (A549; first compound 0.1265 µM) of 0.537 and a relative viability (A549; first compound 0.4 µM) of 0.504. For the same compound, the relative viability (A549; first compound 1.265 µM) was 0.291, the relative viability (IA-LM; first compound 0.04 µM) was 0.437 and the relative viability (IA-LM; first compound 0.1265 µM) was 0.363. The relative viability (IA-LM; first compound 0.4 µM) was 0.344, the relative viability (IA-LM; first compound 1.265 µM) was 0.402 and the relative viability (NCI-H1993; first compound 0.04 µM) was 0.823. The relative viability (NCI-H1993; first compound 0.4 µM) was 0.742, the relative viability (NCI-H1993; first compound 1.265 µM) was 0.789 and the relative viability (NCI-H1299; first compound 0.04 µM) was 0.832. For the same compound, the relative viability (NCI-H1299; first compound 0.1265 µM) was 0.809, the relative viability (NCI-H1299; first compound 0.4 µM) was 0.69 and the relative viability (NCI-H1299; first compound 1.265 µM) was 0.584. The relative viability (EBC-1; first compound 0.04 µM) was 0.43, the relative viability (EBC-1; first compound 0.1265 µM) was 0.371 and the relative viability (EBC-1; first compound 0.4 µM) was 0.345. The relative viability (EBC-1; first compound 1.265 µM) was 0.327, the relative viability (Calu-6; first compound 0.04 µM) was 0.896 and the relative viability (Calu-6; first compound 0.1265 µM) was 1.05. For the same compound, the relative viability (Calu-6; first compound 0.4 µM) was 0.822 and the relative viability (Calu-6; first compound 1.265 µM) was 0.667.
`Oc1nc(-c2ccc(C(F)(F)F)cc2)nc2c1CSCC2` [XAV939] + C[C@]1(O)C[C@@H](c2nc(-c3ccc4ccc(-c5ccccc5)nc4c3)c3c(N)nccn32)C1 [Linsitinib] (partner 1 µM) showed a relative viability (NCI-H596; first compound 0.08 µM) of 1.09, a relative viability (NCI-H596; first compound 0.253 µM) of 1.02 and a relative viability (NCI-H596; first compound 0.8 µM) of 1.03. The relative viability (NCI-H596; first compound 2.53 µM) was 0.924, the relative viability (NCI-H1703; first compound 0.08 µM) was 1.31 and the relative viability (NCI-H1703; first compound 0.253 µM) was 1.02. The relative viability (NCI-H1703; first compound 0.8 µM) was 0.969, the relative viability (NCI-H1703; first compound 2.53 µM) was 0.584 and the relative viability (NCI-H23; first compound 0.08 µM) was 0.612. The relative viability (NCI-H23; first compound 0.253 µM) was 0.559, the relative viability (NCI-H23; first compound 0.8 µM) was 0.647 and the relative viability (NCI-H23; first compound 2.53 µM) was 0.433. For the same compound, the relative viability (A549; first compound 0.08 µM) was 0.696, the relative viability (A549; first compound 0.253 µM) was 0.526 and the relative viability (A549; first compound 0.8 µM) was 0.486. It also gave a relative viability (A549; first compound 2.53 µM) of 0.51, a relative viability (IA-LM; first compound 0.08 µM) of 0.565 and a relative viability (IA-LM; first compound 0.253 µM) of 0.512. For the same compound, the relative viability (IA-LM; first compound 0.8 µM) was 0.505, the relative viability (IA-LM; first compound 2.53 µM) was 0.458 and the relative viability (NCI-H1993; first compound 0.8 µM) was 0.754. It also gave a relative viability (NCI-H1993; first compound 2.53 µM) of 0.719, a relative viability (NCI-H1299; first compound 0.08 µM) of 1.03 and a relative viability (NCI-H1299; first compound 0.253 µM) of 0.878. The relative viability (NCI-H1299; first compound 0.8 µM) was 0.948, the relative viability (NCI-H1299; first compound 2.53 µM) was 0.948 and the relative viability (EBC-1; first compound 0.08 µM) was 1.02. It also gave a relative viability (EBC-1; first compound 0.253 µM) of 0.832, a relative viability (EBC-1; first compound 0.8 µM) of 0.809 and a relative viability (EBC-1; first compound 2.53 µM) of 0.754. For the same compound, the relative viability (Calu-6; first compound 0.08 µM) was 0.981, the relative viability (Calu-6; first compound 0.253 µM) was 1.04 and the relative viability (Calu-6; first compound 0.8 µM) was 0.953. For the same compound, the relative viability (Calu-6; first compound 2.53 µM) was 0.856.
